Values of other authors, collected in the CATMoS acute toxicity set (Mansouri et al. 2021).
Values joined by “and” are separate entries in the source; they are usually repeats but may differ in a detail not shown here. Equal values may be shown once.

Experiment: rat acute oral toxicity
Conditions: in vivo

Compound	LD50
CCOC(=O)C(C)Oc1ccc(Oc2nc3ccc(Cl)cc3s2)cc1 (configuration not stated)	907 mg/kg
CNCCCC12CCC(c3ccccc31)c1ccccc12	760 mg/kg
Cc1cc(Cl)ccc1O	1190 mg/kg
COc1c2occc2c(OC)c2c(=O)cc(C)oc12	68.8 mg/kg
CCc1cccc(CC)c1N(CNC(C)=O)C(=O)CCl	3100 mg/kg
CN(C)C(=O)NC1CCC2C3CCC(C3)C12 (configuration not stated)	1600 mg/kg
Cc1ccc(Oc2cc(SCC(=O)NN)ncn2)cc1	460 mg/kg
CNC(=O)ON=C1CSC(C)CS1 (configuration not stated)	5.1 mg/kg
Cc1ccc(C)c(CCNC(N)=O)c1	2300 mg/kg
Cc1ccc(Cl)c(Nc2ccccc2C(=O)O)c1Cl	100 mg/kg
COc1ccc(N=NN(C)C)cc1	347 mg/kg
COP(=S)(NC(C)C)Oc1ccc(Cl)cc1Cl (configuration not stated)	270 mg/kg
CC(C)(C)CCCCC(=O)O	2070 mg/kg
O=C=Nc1cccc(Cl)c1	4200 mg/kg
COP(=S)(OC)SC	15 mg/kg
O=C(O)Cc1csc(-c2ccc(Cl)cc2)n1	850 mg/kg
C=COCCOC(=O)C(=C)C	5940 mg/kg
CCCCOC(=O)/C=C/C(=O)OCCCC	8530 mg/kg
O=[N+]([O-])c1ccc(O)c(CNCCCl)c1	25 mg/kg
Cc1ccccc1OCC(O)CN1CC=CCC1 (configuration not stated)	340 mg/kg
CCOP(=O)(O)CCCl	1250 mg/kg
Fc1ccccc1	4400 mg/kg
COc1c(Cl)ccc(Cl)c1C(=O)O	6760 mg/kg and 2630 mg/kg
CCOC(=O)C(CCc1ccccc1)NC(C)C(=O)N1C(C(=O)O)CC2CCCCC21 (configuration not stated)	2500 mg/kg

Compound	LD50
CCCCCCCCCCOS(=O)(=O)O	1950 mg/kg
O=C(O)c1cccnc1C(=O)O	1550 mg/kg
CCOC(=O)N(C)CC1CCN(c2nc(N)c3cc(OC)c(OC)cc3n2)CC1	660 mg/kg
CCCSP(=O)(OCC)Oc1cnn(-c2ccc(Cl)cc2)c1 (configuration not stated)	237 mg/kg
O=C(O)C1=Cc2sc(Cn3ccnc3)cc2CC1	1880 mg/kg
CC1(C)C(=O)N(Cl)C(=O)N1Cl	542 mg/kg
c1cc(CC2CO2)cc(CC2CO2)c1 (configuration not stated)	4190 mg/kg
c1cncc(C2=NCCC2)c1	1880 mg/kg
CCCN=C(NCCC)C(OCC)c1ccccc1 (configuration not stated)	95 mg/kg
O=C(O)[C@@H]1CC[C@H](C(=O)O)C1	3250 mg/kg
CC(CCCCCCCCCCCCCCCCC(=O)O)N(C)Cc1cc(C(C)N(C)CCCCCCCCCCCCCCCCCC(=O)O)cc(C(C)N(C)CCCCCCCCCCCCCCCCCC(=O)O)c1O (configuration not stated)	11800 mg/kg
Cc1noc(NS(=O)(=O)c2ccc(N)cc2)c1C	10000 mg/kg
CCC(=O)C1(N2CCCCC2)CCN(CCCC(=O)c2ccc(F)cc2)CC1	780 mg/kg
COC(=O)/C=C(/CC(=O)OC)OP(=O)(OC)OC	31 mg/kg
CCC/C=C/C(OCC)OCC	860 mg/kg
C=C(O)C(=O)O	10000 mg/kg
Clc1cc2c(c(Cl)c1Cl)Oc1cc(Cl)c(Cl)c(Cl)c1O2	0.887 mg/kg
CCn1cc(C(=O)O)c(=O)c2cnc(N3CCNCC3)nc21	16000 mg/kg
CCCCCCCCCCCCCCOCCOCCOCCOCCOCCOCCOCCO	2600 mg/kg
CC(C)(CO)C(O)C#N (configuration not stated)	310 mg/kg
FC(F)(F)c1cccc(-n2nc(OCCCN3CCCCCC3)c3cccnc32)c1	780 mg/kg
CN1C2CCC1CC(OC(=O)C(C)(CO)c1ccccc1)C2 (configuration not stated)	1100 mg/kg
CCSC(=O)NC1CCCCC1	2300 mg/kg
N#C[SeH]	10 mg/kg

Compound	LD50
N#CCCN1C(=O)C(O)N=C(c2ccccc2F)c2cc(Cl)ccc21 (configuration not stated)	3500 mg/kg
CCOC(=S)C=Cc1ccc([N+](=O)[O-])cc1	970 mg/kg
CC(C)c1ccc2c(c1)CC[C@H]1[C@](C)(C(=O)O)CCC[C@]21C	1710 mg/kg
CC1(C)CC(=O)CC(C)(C)N1[O]	1460 mg/kg
COc1ccccc1C1=CCN(CC=Cc2ccc3c(c2)CCC(=O)N3)CC1	500 mg/kg
O=C(c1cccnc1)N1CCN=C1Nc1c(Cl)cccc1Cl	80 mg/kg
CC(C)NCC(O)c1ccccc1Cl (configuration not stated)	450 mg/kg and 445 mg/kg
COC(=O)Nc1nc2ccc(C(=O)c3ccc(F)cc3)cc2[nH]1	2560 mg/kg
CC(C)N(CCC(C(N)=O)(c1ccccc1)c1ccccn1)C(C)C (configuration not stated)	880 mg/kg and 333 mg/kg
CCOc1ccc(NCCC#N)cc1	4600 mg/kg
O=C(CCl)c1ccc(Cl)cc1Cl	300 mg/kg
C[n+]1ccc(-c2ccccc2)cc1	35 mg/kg
CCC12CCCN3CCc4c(n(c5cc(Br)ccc45)C(O)(C(=O)OC)C1)C32 (configuration not stated)	1740 mg/kg
CN1CCN(CCCN2c3ccccc3Sc3ccccc32)CC1	1380 mg/kg and 500 mg/kg
CC(C)(C)C(=O)OCOC(=O)[C@@H]1N2C(=O)[C@@H](N=CN3CCCCCC3)[C@H]2SC1(C)C	9500 mg/kg
C=CCC(N)Cc1ccccc1 (configuration not stated)	680 mg/kg
FC(F)(F)c1nc2c(Cl)cc(I)cc2[nH]1	1.44 mg/kg
CC(C)c1ccc2oc3nc(N)c(C(=O)O)cc3c(=O)c2c1	10000 mg/kg
OC(c1ccccc1)(c1ccccc1)C1CCNCC1	984 mg/kg
CC[C@@]1(O)C(=O)OCc2c1cc1n(c2=O)Cc2cc3ccccc3nc2-1	153 mg/kg
NCCNCCNCCO	4630 mg/kg
CS(=O)CC(=O)c1ccccn1 (configuration not stated)	6550 mg/kg
O=C(Cl)c1cccc(S(=O)(=O)Cl)c1	1780 mg/kg
ClC(Cl)(Br)CBr	205 mg/kg
